Each molecule was assayed against human F508del CFTR (Homo sapiens (Human), UniProt P13569, DEL508-508) (assay: CFTR-YFP High Throughput Assay (YFP flux assay, FRT cells)). Conditions: FRT cells expressing human F508del CFTR and YFP.
Chain of human F508del CFTR (P13569 other isoform, or with tags, fused parts or gaps del F508-F508): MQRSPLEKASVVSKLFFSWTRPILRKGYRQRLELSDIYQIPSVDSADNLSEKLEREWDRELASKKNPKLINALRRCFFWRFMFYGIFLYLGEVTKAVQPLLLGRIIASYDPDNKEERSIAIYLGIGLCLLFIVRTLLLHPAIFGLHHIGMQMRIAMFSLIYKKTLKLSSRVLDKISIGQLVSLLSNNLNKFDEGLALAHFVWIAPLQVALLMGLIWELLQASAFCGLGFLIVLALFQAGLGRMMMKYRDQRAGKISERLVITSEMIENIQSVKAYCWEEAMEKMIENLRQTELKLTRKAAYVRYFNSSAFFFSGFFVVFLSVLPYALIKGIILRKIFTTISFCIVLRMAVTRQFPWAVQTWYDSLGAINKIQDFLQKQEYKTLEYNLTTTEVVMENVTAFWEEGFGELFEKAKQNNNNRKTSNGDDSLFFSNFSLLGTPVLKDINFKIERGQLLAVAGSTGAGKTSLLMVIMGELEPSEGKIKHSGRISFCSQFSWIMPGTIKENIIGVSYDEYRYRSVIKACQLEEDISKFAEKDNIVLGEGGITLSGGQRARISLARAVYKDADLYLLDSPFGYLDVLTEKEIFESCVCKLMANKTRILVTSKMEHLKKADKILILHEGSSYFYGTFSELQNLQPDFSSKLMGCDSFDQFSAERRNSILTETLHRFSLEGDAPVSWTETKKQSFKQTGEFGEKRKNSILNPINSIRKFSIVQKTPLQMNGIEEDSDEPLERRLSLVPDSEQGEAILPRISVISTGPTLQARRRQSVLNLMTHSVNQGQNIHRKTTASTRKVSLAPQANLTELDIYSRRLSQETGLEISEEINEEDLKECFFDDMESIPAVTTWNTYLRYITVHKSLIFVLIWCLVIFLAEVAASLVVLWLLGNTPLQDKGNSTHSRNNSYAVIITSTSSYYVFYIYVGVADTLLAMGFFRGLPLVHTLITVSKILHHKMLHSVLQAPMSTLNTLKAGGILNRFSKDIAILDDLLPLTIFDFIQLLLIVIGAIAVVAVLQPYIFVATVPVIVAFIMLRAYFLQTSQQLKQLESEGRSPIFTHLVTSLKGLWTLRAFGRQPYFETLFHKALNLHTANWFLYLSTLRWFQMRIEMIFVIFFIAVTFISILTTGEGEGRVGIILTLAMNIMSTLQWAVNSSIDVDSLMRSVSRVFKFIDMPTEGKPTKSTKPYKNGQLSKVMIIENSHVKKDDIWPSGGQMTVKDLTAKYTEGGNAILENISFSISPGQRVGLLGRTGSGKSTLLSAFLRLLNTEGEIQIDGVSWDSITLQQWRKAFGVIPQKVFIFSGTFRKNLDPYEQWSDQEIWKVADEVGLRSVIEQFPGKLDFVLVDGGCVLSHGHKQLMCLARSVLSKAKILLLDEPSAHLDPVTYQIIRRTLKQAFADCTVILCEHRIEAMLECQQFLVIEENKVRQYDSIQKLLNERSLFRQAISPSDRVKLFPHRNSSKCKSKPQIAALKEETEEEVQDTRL
Assay type: cell-based
Protocol: This protocol is designed to selectively screen small molecule compounds for F508del CFTR corrector activities in the YFP (yellow fluorescent protein) flux assay. In this protocol, the cells are incubated with testing compounds for 24 hours, washed with PBS, stimulated with forskolin and a standard potentiator, and fluorescence in each plate well is measured kinetically read on a 384-well plate reader, such as the Hamamatsu FDSS-6000.
YFP fluorescence intensity values are acquired at high speed before and after iodide buffer is injected to the assay cells. Iodide enters the cells via active CFTR channels in the plasma membrane, and quenches the YFP fluorescence. The rate of fluorescence quenching is proportionate to the total CFTR activity in the cell membrane. F508del CFTR correctors increase the number of CFTR molecules in the testing cell plasma membrane, and thereby accelerate YFP quenching.
This method was initially developed for bench top plate readers (Galietta, J, Jayaraman, S and Verkman, A S. Cell-based assay for high-throughput quantitative screening of CFTR chloride transport agonists. Am. J. Physiol. Cell Physiol. (2001), 281: C173), and was adapted to the HTS format (Sui J, Cotard S, Andersen J, Zhu P, Staunton J, Lee M, Lin S. Optimization of a Yellow fluorescent protein-based iodide influx high-throughput screening assay for cystic fibrosis transmembrane conductance regulator (CFTR) modulators. Assay Drug Dev Technol. (2010), 8: 656-668).
Fisher Rat Thyroid (FRT) cells stably expressing both human F508del CFTR and a halide-sensitive yellow fluorescent protein (YFP-H148Q/I152L 25,22) (Galietta et al. Am. J. Physiol Cell Physiol 281(5), C1734, 2001) were cultured on plastic surface in Coon's modified Ham's F12 medium supplemented with FBS 10%, L-glutamine 2 mM, penicillin 100 U/ml, and streptomycin […]. G418 (0.75-1.0 mg/ml) and zeocin (3.2 ug/ml) were used for selection of FRT cells expressing F508del CFTR and YFP. For primary screening, FRT cells were plated into 384-well black wall, transparent bottom microtiter plates (Costar; Corning Inc.) at a cell density of 20,000-40,000 per well. Test compound was applied to the cells at varying concentrations ranging from 2 nM-40 μM in either a 2-fold or 3-fold dilution series. Cells were incubated in a cell culture incubator at 37° C. with 5% CO2 for 24-26 h. Assay plates were washed with DPBS media (Thermo, cat# SH30028.02) to remove unbound cells and compound. Stimulation media (25 μL) containing 20 μM Forskolin & 30 μM P3 [6-(Ethyl-phenyl-sulfonyl)-4-oxo-1,4-dihydro-quinoline-3-carboxylic acid 2-methoxy-benzylamide] in Hams F-12 coon's modified media was added to the plate wells and incubated at room temperature for 60-120 min. 25 μL of HEPES-PBS-I buffer (10 mM HEPES, 1 mM MgCl2, 3 mM KCl, 1 mM CaCl2, 150 mM NaI) was then added and fluorescence quench curves (Excitation 500 nm/Emission 540 nm; exposure 136 ms) were immediately recorded on an FDSS-6000 plate reader (Hamamatsu). Quench rates were derived from least squares fitting of the data as described by Sui et al (2010).
This protocol is designed to selectively screen small molecule compounds for F508del CFTR potentiator activities in the YFP (yellow fluorescent protein) flux assay. Such compounds act acutely to stimulate CFTR already expressed on the membrane surface. In this protocol, the cells are incubated at 27° C. for 24 hours to homogeneously boost F508del CFTR expression in the cell membrane (low temperature correction), washed with PBS, treated with test compound, and CFTR activity is stimulated with forskolin for 1-2 hr. Measurement of ion flux is initiated by addition of iodide-containing buffer, and YFP quenching is kinetically recorded using a 384-well plate reader, such as the Hamamatsu FDSS-6000.
YFP fluorescence intensity values are acquired at high speed over a 1 min time course before and after iodide buffer is injected to the assay cells. […]
With `Cc1nc2ccc(N(C)C(=O)Cn3nc(-c4cccc(F)c4)c4ccc(OC5CCOCC5)cc4c3=O)cc2o1` [Example 27, 2-(4-(3-fluorophenyl)-1-oxo-7-((tetrahydro-2H-pyran-4-yl)oxy)phthalazin-2(1H)-yl)-N-methyl-N-(2-methylbenzo[d]oxazol-6-yl)acetamide] the EC50 was < 10 µM.
In the case of `Cc1nc2ccc(N(C)C(=O)Cn3nc(-c4cccc(F)c4)c4ccc(OC5CCCCC5)cc4c3=O)cc2o1` [Example 28, 2-(7-(cyclohexyloxy)-4-(3-fluorophenyl)-1-oxophthalazin-2(1H)-yl)-N-methyl-N-(2-methylbenzo[d]oxazol-6-yl)acetamide], the EC50 is reported as < 10 µM.
For `Cc1nc2ccc(N(C)C(=O)Cn3nc(-c4cccc(Cl)c4)c4ccc(OC5CCOCC5)cc4c3=O)cc2o1` [Example 29, 2-(4-(3-chlorophenyl)-1-oxo-7-((tetrahydro-2H-pyran-4-yl)oxy)phthalazin-2(1H)-yl)-N-methyl-N-(2-methylbenzo[d]oxazol-6-yl)acetamide], the EC50 was < 10 µM.
In the case of `CCOc1cc2c(=O)n(CC(=O)N(C)c3ccc4nc(C)oc4c3)nc(-c3cccc(F)c3)c2cc1Cl` [Example 30, 2-(6-chloro-7-ethoxy-4-(3-fluorophenyl)-1-oxophthalazin-2(1H)-yl)-N-methyl-N-(2-methylbenzo[d]oxazol-6-yl)acetamide], the EC50 is reported as < 10 µM.
With `CCOc1cc2c(=O)n(CC(=O)N(C)c3ccc4nc(C)oc4c3)nc(-c3cccc(Cl)c3)c2cc1Cl` [Example 31, 2-(6-chloro-4-(3-chlorophenyl)-7-ethoxy-1-oxophthalazin-2(1H)-yl)-N-methyl-N-(2-methylbenzo[d]oxazol-6-yl)acetamide] the EC50 was < 10 µM.
